Legend:
OVCAR-4 = experiment: Growth inhibition of human OVCAR4 cells at 10 uM after 24 hrs by MTT assay relative to control; assay type: functional; set-up: scale not given: the % may be the effect or the level left
A498 = experiment: Growth inhibition of human A498 cells at 10 uM after 24 hrs by MTT assay relative to control; assay type: functional; set-up: scale not given: the % may be the effect or the level left
KM12 = experiment: Growth inhibition of human KM12 cells at 10 uM after 24 hrs by MTT assay relative to control; assay type: functional; set-up: scale not given: the % may be the effect or the level left
M14 = experiment: Growth inhibition of human M14 cells at 10 uM after 24 hrs by MTT assay relative to control; assay type: functional; set-up: scale not given: the % may be the effect or the level left
MCF7 = experiment: Growth inhibition of human MCF7 cells at 10 uM after 24 hrs by MTT assay relative to control; assay type: functional; set-up: scale not given: the % may be the effect or the level left
Malme-3M = experiment: Growth inhibition of human MALME-3M cells at 10 uM after 24 hrs by MTT assay relative to control; assay type: functional; set-up: scale not given: the % may be the effect or the level left
SW-620 = experiment: Growth inhibition of human SW620 cells at 10 uM after 24 hrs by MTT assay relative to control; assay type: functional; set-up: scale not given: the % may be the effect or the level left
K562 = experiment: Growth inhibition of human K562 cells at 10 uM after 24 hrs by MTT assay relative to control; assay type: functional; set-up: scale not given: the % may be the effect or the level left
SR = experiment: Growth inhibition of human SR cells at 10 uM after 24 hrs by MTT assay relative to control; assay type: functional; set-up: scale not given: the % may be the effect or the level left
HOP-92 = experiment: Growth inhibition of human HOP92 cells at 10 uM after 24 hrs by MTT assay relative to control; assay type: functional; set-up: scale not given: the % may be the effect or the level left
CCRF-CEM = experiment: Growth inhibition of human CCRF-CEM cells at 10 uM after 24 hrs by MTT assay relative to control; assay type: functional; set-up: scale not given: the % may be the effect or the level left
U-251 = experiment: Growth inhibition of human U251 cells at 10 uM after 24 hrs by MTT assay relative to control; assay type: functional; set-up: scale not given: the % may be the effect or the level left
IGROV-1 = experiment: Growth inhibition of human IGROV1 cells at 10 uM after 24 hrs by MTT assay relative to control; assay type: functional; set-up: scale not given: the % may be the effect or the level left
UO-31 = experiment: Growth inhibition of human UO31 cells at 10 uM after 24 hrs by MTT assay relative to control; assay type: functional; set-up: scale not given: the % may be the effect or the level left
TK-10 = experiment: Growth inhibition of human TK10 cells at 10 uM after 24 hrs by MTT assay relative to control; assay type: functional; set-up: scale not given: the % may be the effect or the level left
SN12C = experiment: Growth inhibition of human SN12C cells at 10 uM after 24 hrs by MTT assay relative to control; assay type: functional; set-up: scale not given: the % may be the effect or the level left
HT-29 = experiment: Growth inhibition of human HT-29 cells at 10 uM after 24 hrs by MTT assay relative to control; assay type: functional; set-up: scale not given: the % may be the effect or the level left
MDA-MB-435 = experiment: Growth inhibition of human MDA-MB-435 cells at 10 uM after 24 hrs by MTT assay relative to control; assay type: functional; set-up: scale not given: the % may be the effect or the level left
HL-60(TB) = experiment: Growth inhibition of human HL-60(TB) cells at 10 uM after 24 hrs by MTT assay relative to control; assay type: functional; set-up: scale not given: the % may be the effect or the level left
SNB-75 = experiment: Growth inhibition of human SNB75 cells at 10 uM after 24 hrs by MTT assay relative to control; assay type: functional; set-up: scale not given: the % may be the effect or the level left
UACC-257 = experiment: Growth inhibition of human UACC257 cells at 10 uM after 24 hrs by MTT assay relative to control; assay type: functional; set-up: scale not given: the % may be the effect or the level left
HOP-62 = experiment: Growth inhibition of human HOP62 cells at 10 uM after 24 hrs by MTT assay relative to control; assay type: functional; set-up: scale not given: the % may be the effect or the level left
MOLT-4 = experiment: Growth inhibition of human MOLT4 cells at 10 uM after 24 hrs by MTT assay relative to control; assay type: functional; set-up: scale not given: the % may be the effect or the level left
SK-MEL-28 = experiment: Growth inhibition of human SK-MEL-28 cells at 10 uM after 24 hrs by MTT assay relative to control; assay type: functional; set-up: scale not given: the % may be the effect or the level left
NCI/ADR-RES = experiment: Growth inhibition of human NCI/ADR-RES cells at 10 uM after 24 hrs by MTT assay relative to control; assay type: functional; set-up: scale not given: the % may be the effect or the level left
OVCAR-5 = experiment: Growth inhibition of human OVCAR5 cells at 10 uM after 24 hrs by MTT assay relative to control; assay type: functional; set-up: scale not given: the % may be the effect or the level left
HCT-15 = experiment: Growth inhibition of human HCT15 cells at 10 uM after 24 hrs by MTT assay relative to control; assay type: functional; set-up: scale not given: the % may be the effect or the level left
ACHN = experiment: Growth inhibition of human ACHN cells at 10 uM after 24 hrs by MTT assay relative to control; assay type: functional; set-up: scale not given: the % may be the effect or the level left
SF-268 = experiment: Growth inhibition of human SF268 cells at 10 uM after 24 hrs by MTT assay relative to control; assay type: functional; set-up: scale not given: the % may be the effect or the level left
[1] = Growth inhibition of human Hs 578T cells at 10 uM after 24 hrs by MTT assay relative to control; assay type: functional; set-up: scale not given: the % may be the effect or the level left
NCI-H322M = experiment: Growth inhibition of human NCI-H322M cells at 10 uM after 24 hrs by MTT assay relative to control; assay type: functional; set-up: scale not given: the % may be the effect or the level left
DU-145 = experiment: Growth inhibition of human DU145 cells at 10 uM after 24 hrs by MTT assay relative to control; assay type: functional; set-up: scale not given: the % may be the effect or the level left
HCT-116 = experiment: Growth inhibition of human HCT116 cells at 10 uM after 24 hrs by MTT assay relative to control; assay type: functional; set-up: scale not given: the % may be the effect or the level left
SNB-19 [2] = experiment: Growth inhibition of human SNB19 cells at 10 uM after 24 hrs by MTT assay relative to control; assay type: functional; set-up: scale not given: the % may be the effect or the level left
T47D = experiment: Growth inhibition of human T47D cells at 10 uM after 24 hrs by MTT assay relative to control; assay type: functional; set-up: scale not given: the % may be the effect or the level left
MDA-MB-231 = experiment: Growth inhibition of human MDA-MB-231 cells at 10 uM after 24 hrs by MTT assay relative to control; assay type: functional; set-up: scale not given: the % may be the effect or the level left
MDA-MB-468 = experiment: Growth inhibition of human MDA-MB-468 cells at 10 uM after 24 hrs by MTT assay relative to control; assay type: functional; set-up: scale not given: the % may be the effect or the level left
CAKI-1 = experiment: Growth inhibition of human Caki1 cells at 10 uM after 24 hrs by MTT assay relative to control; assay type: functional; set-up: scale not given: the % may be the effect or the level left
[3] = Growth inhibition of human […] cells at 10 uM after 24 hrs by MTT assay relative to control; assay type: functional; set-up: scale not given: the % may be the effect or the level left
OVCAR-3 = experiment: Growth inhibition of human OVCAR-3 cells at 10 uM after 24 hrs by MTT assay relative to control; assay type: functional; set-up: scale not given: the % may be the effect or the level left
UACC-62 = experiment: Growth inhibition of human UACC62 cells at 10 uM after 24 hrs by MTT assay relative to control; assay type: functional; set-up: scale not given: the % may be the effect or the level left
A549 = experiment: Growth inhibition of human A549 cells at 10 uM after 24 hrs by MTT assay relative to control; assay type: functional; set-up: scale not given: the % may be the effect or the level left
PC-3 = experiment: Growth inhibition of human PC3 cells at 10 uM after 24 hrs by MTT assay relative to control; assay type: functional; set-up: scale not given: the % may be the effect or the level left
SNB-19 [4] = experiment: Antitumor activity against human SNB19 cells after 24 hrs; assay type: functional, cell-based; details: SNB-19, 24 h
NCI-H23 = experiment: Growth inhibition of human NCI-H23 cells at 10 uM after 24 hrs by MTT assay relative to control; assay type: functional; set-up: scale not given: the % may be the effect or the level left
SK-OV-3 = experiment: Growth inhibition of human SKOV3 cells at 10 uM after 24 hrs by MTT assay relative to control; assay type: functional; set-up: scale not given: the % may be the effect or the level left
COLO 205 = experiment: Growth inhibition of human COLO205 cells at 10 uM after 24 hrs by MTT assay relative to control; assay type: functional; set-up: scale not given: the % may be the effect or the level left
SK-MEL-5 = experiment: Growth inhibition of human SK-MEL-5 cells at 10 uM after 24 hrs by MTT assay relative to control; assay type: functional; set-up: scale not given: the % may be the effect or the level left
NCI-H460 = experiment: Growth inhibition of human NCI-H460 cells at 10 uM after 24 hrs by MTT assay relative to control; assay type: functional; set-up: scale not given: the % may be the effect or the level left
786-0 = experiment: Growth inhibition of human 786-0 cells at 10 uM after 24 hrs by MTT assay relative to control; assay type: functional; set-up: scale not given: the % may be the effect or the level left
SK-MEL-2 = experiment: Growth inhibition of human SK-MEL-2 cells at 10 uM after 24 hrs by MTT assay relative to control; assay type: functional; set-up: scale not given: the % may be the effect or the level left
LOX IMVI = experiment: Growth inhibition of human LOXIMVI cells at 10 uM after 24 hrs by MTT assay relative to control; assay type: functional; set-up: scale not given: the % may be the effect or the level left
SF-539 = experiment: Growth inhibition of human SF539 cells at 10 uM after 24 hrs by MTT assay relative to control; assay type: functional; set-up: scale not given: the % may be the effect or the level left
SF-295 = experiment: Growth inhibition of human SF295 cells at 10 uM after 24 hrs by MTT assay relative to control; assay type: functional; set-up: scale not given: the % may be the effect or the level left
HCC 2998 = experiment: Growth inhibition of human HCC2998 cells at 10 uM after 24 hrs by MTT assay relative to control; assay type: functional; set-up: scale not given: the % may be the effect or the level left
NCI-H522 = experiment: Growth inhibition of human NCI-H522 cells at 10 uM after 24 hrs by MTT assay relative to control; assay type: functional; set-up: scale not given: the % may be the effect or the level left
OVCAR-8 = experiment: Growth inhibition of human OVCAR8 cells at 10 uM after 24 hrs by MTT assay relative to control; assay type: functional; set-up: scale not given: the % may be the effect or the level left
EKVX = experiment: Growth inhibition of human EKVX cells at 10 uM after 24 hrs by MTT assay relative to control; assay type: functional; set-up: scale not given: the % may be the effect or the level left
BT-549 = experiment: Growth inhibition of human BT549 cells at 10 uM after 24 hrs by MTT assay relative to control; assay type: functional; set-up: scale not given: the % may be the effect or the level left

## Cc1onc(-c2c3ccccc3c(Cl)c3ccccc23)c1C(=O)Nc1cc(C(=O)NCCCNC(=O)c2cc(NC(=O)c3c(-c4c5ccccc5c(Cl)c5ccccc45)noc3C)cn2C)n(C)c1
OVCAR-4
  Activity: 67.84%
A498
  Activity: 118.2%
KM12
  Activity: 96.11%
M14
  Activity: 80.43%
MCF7
  Activity: 94.12%
Malme-3M
  Activity: 94.79%
SW-620
  Activity: 109.27%
K562
  Activity: 98.76%
SR
  Activity: 87.99%
HOP-92
  Activity: 66.96%
CCRF-CEM
  Activity: 84.24%
U-251
  Activity: 80.63%
IGROV-1
  Activity: 64.38%
UO-31
  Activity: 60.64%
TK-10
  Activity: 107.71%
SN12C
  Activity: 106.37%
HT-29
  Activity: 93.17%
MDA-MB-435
  Activity: 85.56%
HL-60(TB)
  Activity: 160.8%
SNB-75
  Activity: 33.5%
UACC-257
  Activity: 86.93%
HOP-62
  Activity: 87.7%
MOLT-4
  Activity: 91.53%
SK-MEL-28
  Activity: 116.55%
NCI/ADR-RES
  Activity: 103.72%
OVCAR-5
  Activity: 95.22%
HCT-15
  Activity: 102.58%
ACHN
  Activity: 79.36%
SF-268
  Activity: 72.67%
[1]
  Activity: 88.87%
NCI-H322M
  Activity: 105.3%
DU-145
  Activity: 103.19%
HCT-116
  Activity: 88.45%
SNB-19 [2]
  Activity: 74.84%
T47D
  Activity: 76.21%
MDA-MB-231
  Activity: 86.9%
MDA-MB-468
  Activity: 92.57%
CAKI-1
  Activity: 71.63%
[3]
  Activity: 78.11%
OVCAR-3
  Activity: 88.29%
UACC-62
  Activity: 76.22%
A549
  Activity: 86.45%
PC-3
  Activity: 76.05%
SNB-19 [4]
  IC50: > 100 µM
NCI-H23
  Activity: 105.33%
SK-OV-3
  Activity: 100.87%
COLO 205
  Activity: 76.5%
SK-MEL-5
  Activity: 104%
NCI-H460
  Activity: 101.62%
786-0
  Activity: 81.38%
SK-MEL-2
  Activity: 102.24%
LOX IMVI
  Activity: 82.59%
SF-539
  Activity: 91.99%
SF-295
  Activity: 109.86%
HCC 2998
  Activity: 130.16%
NCI-H522
  Activity: 76.93%
OVCAR-8
  Activity: 88.63%
EKVX
  Activity: 92.34%
BT-549
  Activity: 126.28%

— ChEMBL document CHEMBL1152405, “Bis-anthracenyl isoxazolyl amides have enhanced anticancer activity” (Bioorg Med Chem Lett, 2009)
